Assays:
[1] = Pharmacokinetic interaction between gemfibrozil and LipoCol Forte; assay type: in vivo, human; details: for Effect of concomitant gemfibrozil on pharmacokinetic parameters (AUC, Cmax): one LipoCol Forte capsule, gemfibrozil 600 mg twice daily; for AUC(0-t): read-out: AUC0–12
Description: The volunteers were fasted overnight before dosing and a high fat breakfast or dinner was served 0.5 h after administration of gemfibrozil. […] Blood samples were prepared as described in the previous section (dose-escalation study).

[2] = Single dose escalation and multiple dosing pharmacokinetic study of LipoCol Forte; details: for AUC0–12/dose / AUC0–inf/dose / CL/F / Cmax/dose / Accumulation with multiple dosing / Dose linearity of pharmacokinetic properties (AUC, Cmax) / AUC(0-inf) / Cmax / MRT / Tmax / Vd/F: healthy subjects; for AUC0–12/dose / AUC0–inf/dose / CL/F / Cmax/dose / AUC(0-t) / AUC(0-inf) / Cmax / MRT / half-life / Tmax / Vd/F: fed, mean ± SD, n = 14; for Accumulation with multiple dosing: one LipoCol Forte capsule twice daily for 5 days; for Dose linearity of pharmacokinetic properties (AUC, Cmax): single dose of 1, 2 or 4 LipoCol Forte capsules; for AUC(0-t) / AUC(0-inf) / Cmax / MRT / half-life / Tmax / Vd/F: human, plasma, oral; for AUC(0-t): AUC0–12, healthy subjects; for AUC(0-inf): AUC0–inf; for half-life: T1/2, healthy subjects
Description: A high fat breakfast (including two eggs fried in butter, two strips of bacon, two slices of toast with butter, four ounces of hash brown potatoes, and eight ounces of whole milk) was provided 30 min before dosing. All doses were administered with 240 mL of water. […] A high fat breakfast or dinner was served 30 min before dosing. One capsule was administered with 240 mL of water. […] Within 30 min of collection, the samples were centrifuged at 2,600 g for 10 minutes at 4°C and the plasma transferred to labeled polypropylene tubes containing 50 μL of 17% phosphoric acid and stored at −80°C until analysis.
The pharmacokinetics were characterized, when appropriate, by the peak concentration in the plasma (C max⁡), time to reach the peak concentration (T max⁡), area under the plasma concentration versus time curve from time zero to the time of the last quantifiable concentration (AUC0−t), AUC from time zero to the time extrapolated to infinity (AUC0−inf⁡), half-life (T 1/2), mean residence time (MRT), apparent clearance (CL/F), and apparent volume of distribution (V d/F).

[3] = biological target: P-gp (Homo sapiens, UniProt P08183); assay type: cell-based; details: MDCK-MDR1 cells, 25 μM (extracts adjusted to 25 μM lovastatin)
Description: MDCK-MDR1 cells (2.5 × 10^4 cells/cm^2) (from The Netherlands Cancer Institute) were cultured in polystyrene Nunclon multidishes under an atmosphere of 5% CO2/95% air. The minimal essential medium (MEM) (Invitrogen, CA, USA) contained 10% fetal bovine serum (Hyclone, UT, USA), 5.5 mM L-glutamine, 1.5 mg/mL of sodium bicarbonate, and 1 mM sodium pyruvate (all from Sigma, MO, USA), and 100 unit/mL of penicillin and 0.1 mg/mL of streptomycin (both from Invitrogen). […] The percentage of inhibition of P-gp activity and the IC50 values for P-gp inhibition were determined by the methods described by Rautio et al..

[4] = biological target: T1, CYP2D6 (Homo sapiens, UniProt P10635); experiment: Inhibition of CYP2D6 activity in human liver microsomes (dextrorphan/dextromethorphan ratio); assay type: biochemical
T1 construct: Human liver microsomes (UltraPool HLM 150) were purchased from BD Biosciences; tissue BD Biosciences UltraPool HLM 150; host or cells: pooled human liver microsomes

[5] = biological target: T2, CYP1A2 (Homo sapiens, UniProt P05177); experiment: Inhibition of CYP1A2 activity in human liver microsomes (acetaminophen/phenacetin ratio); assay type: biochemical; details: extracts as lovastatin concentration, mean ± SEM, 3-4 preparations
T2 construct: Human liver microsomes (UltraPool HLM 150) were purchased from BD Biosciences; tissue BD Biosciences UltraPool HLM 150; host or cells: pooled human liver microsomes
T2 sequence (P05177 1-516): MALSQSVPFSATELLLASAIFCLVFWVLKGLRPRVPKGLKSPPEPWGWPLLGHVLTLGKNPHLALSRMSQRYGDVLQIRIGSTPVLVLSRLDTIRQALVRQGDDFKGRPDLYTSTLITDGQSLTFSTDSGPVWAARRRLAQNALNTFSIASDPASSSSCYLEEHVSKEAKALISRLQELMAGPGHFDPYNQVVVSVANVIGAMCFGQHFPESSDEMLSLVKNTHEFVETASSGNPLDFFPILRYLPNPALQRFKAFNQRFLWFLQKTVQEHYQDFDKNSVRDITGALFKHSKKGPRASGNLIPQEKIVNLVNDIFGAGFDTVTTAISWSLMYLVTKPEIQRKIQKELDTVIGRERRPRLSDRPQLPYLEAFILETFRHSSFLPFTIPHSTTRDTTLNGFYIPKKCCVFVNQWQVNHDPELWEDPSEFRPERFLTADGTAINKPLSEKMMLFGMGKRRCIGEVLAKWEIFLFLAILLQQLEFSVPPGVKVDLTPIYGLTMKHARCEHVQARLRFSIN

[6] = biological target: T3, CYP2B6 (Homo sapiens, UniProt P20813); experiment: Inhibition of CYP2B6 activity in human liver microsomes (hydroxybupropion/bupropion ratio); assay type: biochemical
T3 construct: Human liver microsomes (UltraPool HLM 150) were purchased from BD Biosciences; tissue BD Biosciences UltraPool HLM 150; host or cells: pooled human liver microsomes
T3 sequence (P20813 1-491): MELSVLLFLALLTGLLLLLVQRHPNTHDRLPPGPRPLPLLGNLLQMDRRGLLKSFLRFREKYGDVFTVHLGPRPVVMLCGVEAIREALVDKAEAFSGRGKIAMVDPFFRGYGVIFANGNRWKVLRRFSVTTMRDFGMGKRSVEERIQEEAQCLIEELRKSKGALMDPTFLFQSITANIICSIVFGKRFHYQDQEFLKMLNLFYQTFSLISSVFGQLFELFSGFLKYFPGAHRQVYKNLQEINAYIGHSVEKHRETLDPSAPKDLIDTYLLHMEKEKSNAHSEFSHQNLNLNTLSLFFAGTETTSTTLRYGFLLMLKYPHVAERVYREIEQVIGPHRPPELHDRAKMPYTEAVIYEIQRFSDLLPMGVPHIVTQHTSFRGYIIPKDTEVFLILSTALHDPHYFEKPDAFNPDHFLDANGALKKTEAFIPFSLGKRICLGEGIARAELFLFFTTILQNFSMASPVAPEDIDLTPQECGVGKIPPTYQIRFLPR

[7] = healthy subjects, single dose one LipoCol Forte capsule alone, mean ± SD, n = 13
[8] = healthy subjects, single dose one LipoCol Forte capsule with coadministration of 600 mg gemfibrozil twice daily, mean ± SD, n = 13
[9] = human, plasma, oral, 1 LipoCol Forte capsule
[10] = human, plasma, oral, 1 LipoCol Forte capsule, read-out: Tmax
[11] = multiple doses one LipoCol Forte capsule BID for 5 days
[12] = single dose four LipoCol Forte capsules
[13] = single dose one LipoCol Forte capsule
[14] = single dose two LipoCol Forte capsules
[15] = 1 LipoCol Forte capsule, multiple doses one LipoCol Forte capsule BID for 5 days
[16] = 1 LipoCol Forte capsule, single dose one LipoCol Forte capsule
[17] = 2 LipoCol Forte capsules, single dose two LipoCol Forte capsules
[18] = 4 LipoCol Forte capsules, single dose four LipoCol Forte capsules

T1 sequence (P10635 whole entry): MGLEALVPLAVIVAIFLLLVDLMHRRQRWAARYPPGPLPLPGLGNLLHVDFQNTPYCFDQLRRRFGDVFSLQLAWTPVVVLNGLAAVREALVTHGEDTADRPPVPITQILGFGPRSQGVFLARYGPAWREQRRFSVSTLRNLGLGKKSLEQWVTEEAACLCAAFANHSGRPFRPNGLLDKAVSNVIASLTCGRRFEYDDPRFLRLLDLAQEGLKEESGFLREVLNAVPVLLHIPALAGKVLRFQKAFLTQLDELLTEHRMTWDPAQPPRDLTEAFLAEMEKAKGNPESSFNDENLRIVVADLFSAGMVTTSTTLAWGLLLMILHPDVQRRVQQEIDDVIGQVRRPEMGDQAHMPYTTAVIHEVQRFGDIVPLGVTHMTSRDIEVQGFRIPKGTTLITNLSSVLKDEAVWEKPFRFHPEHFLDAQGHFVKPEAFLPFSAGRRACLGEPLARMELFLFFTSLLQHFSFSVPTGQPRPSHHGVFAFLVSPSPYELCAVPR
P-gp, sequence (P08183 whole entry): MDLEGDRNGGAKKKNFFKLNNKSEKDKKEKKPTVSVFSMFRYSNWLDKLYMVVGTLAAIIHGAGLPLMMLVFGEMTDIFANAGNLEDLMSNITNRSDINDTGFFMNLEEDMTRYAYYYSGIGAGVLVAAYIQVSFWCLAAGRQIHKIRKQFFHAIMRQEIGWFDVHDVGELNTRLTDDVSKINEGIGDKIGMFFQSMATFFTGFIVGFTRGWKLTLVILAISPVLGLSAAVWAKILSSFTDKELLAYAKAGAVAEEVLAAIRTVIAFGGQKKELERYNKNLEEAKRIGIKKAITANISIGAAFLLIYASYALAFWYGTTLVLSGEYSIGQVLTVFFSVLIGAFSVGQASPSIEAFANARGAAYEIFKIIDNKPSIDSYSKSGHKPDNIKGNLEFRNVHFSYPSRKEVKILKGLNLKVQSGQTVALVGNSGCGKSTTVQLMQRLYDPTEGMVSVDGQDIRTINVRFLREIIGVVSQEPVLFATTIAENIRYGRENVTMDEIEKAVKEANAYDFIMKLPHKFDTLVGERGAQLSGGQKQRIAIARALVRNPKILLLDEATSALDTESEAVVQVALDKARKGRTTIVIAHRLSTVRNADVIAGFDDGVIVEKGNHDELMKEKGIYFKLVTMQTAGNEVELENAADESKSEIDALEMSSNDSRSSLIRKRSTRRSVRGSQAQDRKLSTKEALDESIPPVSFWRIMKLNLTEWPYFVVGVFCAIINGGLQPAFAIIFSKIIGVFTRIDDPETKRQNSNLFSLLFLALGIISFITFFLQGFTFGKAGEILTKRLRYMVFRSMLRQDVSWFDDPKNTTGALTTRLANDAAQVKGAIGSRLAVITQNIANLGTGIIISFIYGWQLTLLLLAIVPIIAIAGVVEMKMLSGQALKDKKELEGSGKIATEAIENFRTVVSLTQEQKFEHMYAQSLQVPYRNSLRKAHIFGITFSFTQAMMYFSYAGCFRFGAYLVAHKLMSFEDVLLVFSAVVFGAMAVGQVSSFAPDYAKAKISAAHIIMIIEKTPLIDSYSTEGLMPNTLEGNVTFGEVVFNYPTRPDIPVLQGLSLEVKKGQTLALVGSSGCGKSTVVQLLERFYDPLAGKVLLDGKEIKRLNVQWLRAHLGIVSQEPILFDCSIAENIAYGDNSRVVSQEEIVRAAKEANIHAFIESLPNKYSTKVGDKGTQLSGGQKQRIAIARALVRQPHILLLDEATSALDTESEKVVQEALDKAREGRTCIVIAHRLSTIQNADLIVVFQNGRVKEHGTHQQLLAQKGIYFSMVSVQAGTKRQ

CC[C@H](C)C(=O)O[C@H]1C[C@@H](C)C=C2C=C[C@H](C)[C@H](CC[C@@H](O)C[C@@H](O)CC(=O)O)[C@H]21 [Lovastatin acid, lovastatin acid]
Effect of concomitant gemfibrozil on pharmacokinetic parameters (AUC, Cmax) ([1]; healthy subjects): significantly increased
CL/F [1, 7]: 218.4 ± 108.6 L/h
CL/F [1, 8]: 99.9 ± 48.4 L/h
AUC(0-inf) [1, 9]: 33.1 ± 18.2 ng·h/mL
Cmax [1, 9]: 6.79 ± 3.78 ng/mL
MRT [1, 9]: 6.19 ± 1.38 h
Vd/F [1, 9]: 644 ± 586 L
half-life [1, 9]: 1.94 ± 0.75 h
AUC(0-t) [1, 9]: 31.1 ± 16.5 ng·h/mL
Tmax [1, 10]: 4.85 ± 1.14 h
AUC0–12/dose [2, 11]: 5.69 ± 1.70
AUC0–inf/dose [2, 11]: 5.92 ± 1.70
CL/F [2, 11]: 192.3 ± 63.7 L/h
Cmax/dose [2, 11]: 1.41 ± 0.57
AUC0–12/dose [2, 12]: 6.94 ± 2.64
AUC0–inf/dose [2, 12]: 7.42 ± 2.76
CL/F [2, 12]: 150.2 ± 45.9 L/h
Cmax/dose [2, 12]: 1.59 ± 0.75
AUC0–12/dose [2, 13]: 5.75 ± 2.30
AUC0–inf/dose [2, 13]: 6.72 ± 2.85
CL/F [2, 13]: 172.9 ± 68.1 L/h
Cmax/dose [2, 13]: 1.37 ± 0.72
AUC0–12/dose [2, 14]: 6.94 ± 2.42
AUC0–inf/dose [2, 14]: 7.50 ± 2.44
CL/F [2, 14]: 145.7 ± 43.1 L/h
Cmax/dose [2, 14]: 1.56 ± 0.81
Accumulation with multiple dosing [2]: no accumulation
Dose linearity of pharmacokinetic properties (AUC, Cmax) [2]: linear
AUC(0-t) [2, 15]: 32.4 ± 9.7 ng·h/mL
AUC(0-t) [2, 16]: 33 ± 13.1 ng·h/mL
AUC(0-inf) [2, 15]: 33.7 ± 9.7 ng·h/mL
AUC(0-inf) [2, 16]: 38.3 ± 16.2 ng·h/mL
Cmax [2, 15]: 8.04 ± 3.24 ng/mL
Cmax [2, 16]: 7.78 ± 4.12 ng/mL
MRT [2, 15]: 5.59 ± 1.15 h
MRT [2, 16]: 7.15 ± 3.3 h
half-life [2, 15]: 1.92 ± 0.34 h
half-life [2, 16]: 2.57 ± 1.74 h
Tmax [2, 15]: 4.36 ± 0.93 h
Tmax [2, 16]: 5.07 ± 1.59 h
Vd/F [2, 15]: 544 ± 241 L
Vd/F [2, 16]: 603 ± 337 L
AUC(0-t) [2, 17]: 79.1 ± 27.6 ng·h/mL
AUC(0-inf) [2, 17]: 85.4 ± 27.8 ng·h/mL
Cmax [2, 17]: 17.8 ± 9.21 ng/mL
MRT [2, 17]: 6.43 ± 1.77 h
half-life [2, 17]: 2.07 ± 0.68 h
Tmax [2, 17]: 5.14 ± 1.7 h
Vd/F [2, 17]: 438 ± 189 L
AUC(0-t) [2, 18]: 158 ± 60.2 ng·h/mL
AUC(0-inf) [2, 18]: 169 ± 62.9 ng·h/mL
Cmax [2, 18]: 36.2 ± 17.1 ng/mL
MRT [2, 18]: 6.39 ± 1.43 h
half-life [2, 18]: 2.04 ± 0.68 h
Tmax [2, 18]: 5 ± 1.52 h
Vd/F [2, 18]: 456 ± 265 L

C/C=C/C[C@@H](C)C(=O)[C@H]1C(=O)N[C@@H](C(C)C)C(=O)N(C)CC(=O)N(C)[C@@H](CC(C)C)C(=O)N[C@@H](C(C)C)C(=O)N(C)[C@@H](CC(C)C)C(=O)N[C@@H](C)C(=O)N[C@H](C)C(=O)N(C)[C@@H](CC(C)C)C(=O)N(C)[C@@H](CC(C)C)C(=O)N(C)[C@@H](C(C)C)C(=O)N1C [PSC833]
Inhibition of P-gp activity (digoxin uptake) [3]: highest inhibition

CC[C@H](C)C(=O)O[C@H]1C[C@@H](C)C=C2C=C[C@H](C)[C@H](CC[C@@H]3C[C@@H](O)CC(=O)O3)[C@H]21 [Pure lovastatin, lovastatin, reference compound]
Effect of concomitant gemfibrozil on pharmacokinetic parameters (AUC, Cmax) ([1]; healthy subjects): no significant effects
CL/F [1, 7]: 1374.0 ± 782.6 L/h
CL/F [1, 8]: 1372.5 ± 763.8 L/h
Tmax [1, 8]: 3.00 ± 1.37 h
AUC(0-inf) [1, 9]: 5.68 ± 3.48 ng·h/mL
Cmax [1, 9]: 1.53 ± 1.45 ng/mL
MRT [1, 9]: 4.87 ± 1.28 h
Vd/F [1, 9]: 4000 ± 2600 L
half-life [1, 9]: 2.12 ± 0.7 h
AUC(0-t) [1, 9]: 5 ± 3.29 ng·h/mL
Tmax [1, 10]: 3.08 ± 1.17 h
IC50 [4]: > 50 µM
IC50 [5]: > 100 µM
CL/F [2, 11]: 1339.5 ± 763.3 L/h
CL/F [2, 12]: 1128.8 ± 624.4 L/h
CL/F [2, 13]: 941.7 ± 453.5 L/h
CL/F [2, 14]: 994.5 ± 548.8 L/h
Accumulation with multiple dosing [2]: no accumulation
Dose linearity of pharmacokinetic properties (AUC, Cmax) [2]: linear
AUC(0-t) [2, 15]: 5.22 ± 2.6 ng·h/mL
AUC(0-t) [2, 16]: 6.74 ± 3.27 ng·h/mL
AUC(0-inf) [2, 15]: 5.71 ± 2.68 ng·h/mL
AUC(0-inf) [2, 16]: 7.47 ± 3.44 ng·h/mL
Cmax [2, 15]: 1.41 ± 0.69 ng/mL
Cmax [2, 16]: 1.61 ± 0.8 ng/mL
MRT [2, 15]: 4.81 ± 1.24 h
MRT [2, 16]: 5.55 ± 1.98 h
half-life [2, 15]: 1.93 ± 0.43 h
half-life [2, 16]: 2.36 ± 0.66 h
Tmax [2, 15]: 3.39 ± 1.38 h
Tmax [2, 16]: 3.46 ± 1.28 h
Vd/F [2, 15]: 3570 ± 1800 L
Vd/F [2, 16]: 3080 ± 1330 L
AUC(0-t) [2, 17]: 13.4 ± 6.07 ng·h/mL
AUC(0-inf) [2, 17]: 14.4 ± 6.3 ng·h/mL
Cmax [2, 17]: 3.36 ± 1.81 ng/mL
MRT [2, 17]: 5.27 ± 1.42 h
half-life [2, 17]: 2.36 ± 0.68 h
Tmax [2, 17]: 3.29 ± 1.35 h
Vd/F [2, 17]: 3380 ± 2050 L
AUC(0-t) [2, 18]: 24.9 ± 14.2 ng·h/mL
AUC(0-inf) [2, 18]: 26.8 ± 15.4 ng·h/mL
Cmax [2, 18]: 5.7 ± 3.42 ng/mL
MRT [2, 18]: 5.51 ± 1.11 h
half-life [2, 18]: 2.42 ± 0.45 h
Tmax [2, 18]: 3.25 ± 0.78 h
Vd/F [2, 18]: 3860 ± 1960 L
IC50 [6]: 15 ± 1.11 µM
IC50 at 20 min ([6]; human, human liver microsomes, probe bupropion): 9 to 16 µM
